Assay results reported in article PMC6099706, “Anti-Mycobacterium tuberculosis Activity of Esters of Quinoxaline 1,4-Di-N-Oxide” (Molecules : A Journal of Synthetic Chemistry and Natural …, 2018).
Values after ≈ are worked out from the molar mass of the structure shown.

Legend:
[1] = test system: nonreplicating persistent (NRP) M. tuberculosis strain; assay: microbe, parasite or virus in culture; format: cell-based, Mycobacterium tuberculosis; details: for MIC: Mycobacterium tuberculosis, read-out: LORA MIC; for LORA percentage in parentheses after the MIC bound: meaning not defined in the paper, printed beside the highest concentration
[2] = target: M. tuberculosis gyrase (GyrA and Gyr B subunits) (Mycobacterium tuberculosis, UniProt P9WG45+P9WG47); assay: M. tuberculosis gyrase supercoiling assay; format: biochemical; details: at 50 μM
Chain of M. tuberculosis gyrase (GyrA and Gyr B subunits) (P9WG45 whole entry): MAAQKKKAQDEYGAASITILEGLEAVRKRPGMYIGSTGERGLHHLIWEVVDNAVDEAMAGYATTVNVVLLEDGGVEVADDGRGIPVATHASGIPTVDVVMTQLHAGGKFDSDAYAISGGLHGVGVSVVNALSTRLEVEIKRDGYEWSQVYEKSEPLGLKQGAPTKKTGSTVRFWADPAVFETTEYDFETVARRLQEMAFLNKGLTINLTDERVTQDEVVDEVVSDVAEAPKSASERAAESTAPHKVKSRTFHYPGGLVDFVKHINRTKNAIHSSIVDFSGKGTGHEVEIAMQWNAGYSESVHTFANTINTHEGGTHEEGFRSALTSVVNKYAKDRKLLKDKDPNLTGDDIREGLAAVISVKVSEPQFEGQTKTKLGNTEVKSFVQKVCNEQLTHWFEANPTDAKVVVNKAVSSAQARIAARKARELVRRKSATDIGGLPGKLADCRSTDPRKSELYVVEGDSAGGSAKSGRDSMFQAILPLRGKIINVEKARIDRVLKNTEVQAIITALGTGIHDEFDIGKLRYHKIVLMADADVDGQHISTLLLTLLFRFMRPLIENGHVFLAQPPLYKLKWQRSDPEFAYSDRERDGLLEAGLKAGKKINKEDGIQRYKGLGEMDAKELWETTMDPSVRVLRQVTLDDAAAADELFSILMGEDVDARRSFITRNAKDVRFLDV
Chain of M. tuberculosis gyrase (GyrA and Gyr B subunits) (P9WG47 whole entry): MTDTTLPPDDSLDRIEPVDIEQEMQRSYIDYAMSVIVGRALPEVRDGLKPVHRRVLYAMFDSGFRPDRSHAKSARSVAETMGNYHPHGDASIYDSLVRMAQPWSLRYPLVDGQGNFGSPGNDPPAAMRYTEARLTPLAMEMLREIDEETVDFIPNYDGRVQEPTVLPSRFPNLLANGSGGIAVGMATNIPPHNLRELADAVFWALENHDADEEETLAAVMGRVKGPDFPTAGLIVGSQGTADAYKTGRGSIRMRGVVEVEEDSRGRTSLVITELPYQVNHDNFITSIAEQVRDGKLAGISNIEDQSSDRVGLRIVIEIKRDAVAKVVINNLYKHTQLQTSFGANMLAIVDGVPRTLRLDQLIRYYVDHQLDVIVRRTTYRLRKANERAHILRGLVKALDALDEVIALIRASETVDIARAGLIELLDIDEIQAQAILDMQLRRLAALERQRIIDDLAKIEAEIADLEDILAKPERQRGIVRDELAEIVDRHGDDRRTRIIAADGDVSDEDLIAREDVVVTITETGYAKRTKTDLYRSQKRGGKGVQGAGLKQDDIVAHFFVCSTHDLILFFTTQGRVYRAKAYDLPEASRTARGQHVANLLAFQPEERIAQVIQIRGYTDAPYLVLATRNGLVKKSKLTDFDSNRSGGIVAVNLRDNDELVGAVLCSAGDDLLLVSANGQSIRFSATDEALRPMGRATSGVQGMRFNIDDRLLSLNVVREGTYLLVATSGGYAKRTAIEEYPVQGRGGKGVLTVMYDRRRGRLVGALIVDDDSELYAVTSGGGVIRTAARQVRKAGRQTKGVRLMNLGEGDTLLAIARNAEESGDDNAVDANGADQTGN
Protocol: The activity of the enzyme was determined prior to the testing of the quinoxaline 1,4-di-N-oxide derivatives and 1 U was defined as the amount of enzyme required to just fully supercoil the substrate under test conditions. Compounds were tested at 50 μM. Final DMSO concentration in the assays was 1% (v/v).
1 U of M. tuberculosis gyrase (GyrA and Gyr B subunits) (final concentration in assay 50 nM) was incubated with 0.5 μg of relaxed pBR322 DNA in a 30 μL reaction at 37 °C for 30 min under the following conditions: 50 mM HEPES. KOH (pH 7.9), 6 mM magnesium acetate, 4 mM DTT, 1 mM ATP, 100 mM potassium glutamate, 2 mM spermidine and 0.05 mg/mL albumin.
Each reaction was stopped by the addition of 30 μL chloroform/iso-amyl alcohol (26:1) and 20 μL Stop Dye (40% sucrose, 100 mM Tris.HCl (pH 7.5), 10 mM EDTA, 0.5 μg/mL bromophenol blue), before being loaded on a 1.0% TAE (Tris.acetate […], EDTA […]) gel run at 80 V for 2 h.
Bands were visualized by ethidium staining for 10 min, destained for 10 min in water, analyzed by gel documentation equipment (Syngene, Cambridge, UK), and quantified using Syngene software (Genetools version 4.00 (1997–1998), Syngene, A division of Synoptics Corp, Cambridge, UK).
Raw gel data (fluorescent band volumes) collected from Syngene’s GeneTools gel analysis software were converted to a % of the 100% control (the supercoiled enzyme plus DMSO control DNA band). These were analyzed using SigmaPlot Version 13.0 (Systat Software Inc., London, UK; 2016).

[3] = test system: Mycobacterium tuberculosis strain H37Rv; assay: microplate Alamar blue assay (MABA); format: cell-based; details: for MIC: Mycobacterium tuberculosis, H37RV; for MIC / MABA MIC: M. tuberculosis H37Rv, lowest concentration effecting 90% inhibition; for MABA percentage in parentheses after the MIC bound: meaning not defined in the paper, printed beside the highest concentration
M. tb H37Rv = assay: MIC on M. tb H37Rv (Table 4 panel); format: cell-based; details: Mycobacterium tuberculosis
[4] = nonreplicating persistent strain

Row | Compound | MIC [1, 4] [mg/L] | MIC [3] [mg/L] | other results
1 | COC(=O)c1ccc2c(c1)[n+]([O-])c(C(=O)c1ccccc1)c(C)[n+]2[O-] [Compound T-003] | 1.49 (≈ 4.4 µM) | 3.47 (≈ 10.3 µM) | inhibitory effect on M. tuberculosis gyrase supercoiling [2]: none of the compounds showed an inhibitory effect
2 | CCOC(=O)c1ccc2c(c1)[n+]([O-])c(C(=O)c1ccccc1)c(C)[n+]2[O-] [Compound T-004] | 0.61 (≈ 1.73 µM) | 2.32 (≈ 6.58 µM) | –
3 | COC(=O)c1ccc2c(c1)[n+]([O-])c(C(=O)Nc1ccccc1)c(C)[n+]2[O-] [Compound T-012] | 0.86 (≈ 2.43 µM) | 1.07 (≈ 3.03 µM) | inhibitory effect on M. tuberculosis gyrase supercoiling [2]: none of the compounds showed an inhibitory effect
4 | CCOC(=O)c1c(C)[n+]([O-])c2ccc(C(=O)OC)cc2[n+]1[O-] [Compound T-013] | 0.54 (≈ 1.76 µM) | 0.47 (≈ 1.53 µM) | inhibitory effect on M. tuberculosis gyrase supercoiling [2]: none of the compounds showed an inhibitory effect
5 | COC(=O)c1ccc2no[n+]([O-])c2c1 [Compound T-014] | 13 (≈ 66.9 µM) | 7.6 (≈ 39.1 µM) | –
6 | CCOC(=O)c1ccc2c(c1)[n+]([O-])c(C(=O)OCC)c(C)[n+]2[O-] [Compound T-015] | 0.49 (≈ 1.53 µM) | 0.5 (≈ 1.56 µM) | –
7 | CCOC(=O)c1ccc2c(c1)[n+]([O-])c(C(=O)CC)c(C(F)(F)F)[n+]2[O-] [Compound T-026] | 2.5 (≈ 6.98 µM) | > 22 | MABA MIC [3]: 22.5 mg/L
8 | COC(=O)c1ccc2c(c1)[n+]([O-])c(C(C)=O)c(C)[n+]2[O-] [Compound T-034] | 0.7 (≈ 2.53 µM) | 1.1 (≈ 3.98 µM) | –
9 | COC(=O)c1cc2c(cc1OC)no[n+]2[O-] [Compound T-036] | – | > 100 | MABA MIC [3]: >128 mg/L
10 | CCOC(=O)Cc1c(C(=O)OCC)[n+]([O-])c2cc(C(=O)OC)ccc2[n+]1[O-] [Compound T-037] | 1.9 (≈ 5.02 µM) | 1.2 (≈ 3.17 µM) | –
11 | CCC(=O)c1c(C(F)(F)F)[n+]([O-])c2ccc(C(=O)OC)cc2[n+]1[O-] [Compound T-038] | – | < 0.4 | inhibitory effect on M. tuberculosis gyrase supercoiling [2]: none of the compounds showed an inhibitory effect
12 | COC(=O)c1ccc2c(c1)[n+]([O-])c(C(=O)C(C)C)c(C(F)(F)F)[n+]2[O-] [Compound T-039] | 0.83 (≈ 2.32 µM) | 1.54 (≈ 4.3 µM) | –
13 | CCOC(=O)c1c(-c2ccccc2)[n+]([O-])c2ccc(C(=O)OC)cc2[n+]1[O-] [Compound T-042] | 0.5 (≈ 1.36 µM) | 1 (≈ 2.71 µM) | –
14 | CCOC(=O)c1ccc2c(c1)[n+]([O-])c(C(=O)OCC)c(-c1ccccc1)[n+]2[O-] [Compound T-043] | 0.47 (≈ 1.23 µM) | 0.54 (≈ 1.41 µM) | –
15 | CCOC(=O)c1ccc2c(c1)[n+]([O-])c(C(N)=O)c(C)[n+]2[O-] [Compound T-045] | 100 (≈ 344 µM) | > 22 | MABA MIC [3]: 29.83 mg/L
16 | [O-][n+]1onc2ccccc21 [Compound T-046] | – | – | LORA MIC [1, 4]: 46.97 mg/L; MABA MIC [3]: 58.5 mg/L
17 | CC(C)OC(=O)c1ccc2no[n+]([O-])c2c1 [Compound T-063] | 3.04 (≈ 13.7 µM) | 1.4 (≈ 6.3 µM) | –
18 | COC(=O)c1c(C)[n+]([O-])c2ccc(C(=O)OC(C)C)cc2[n+]1[O-] [Compound T-064] | 0.56 (≈ 1.75 µM) | 0.58 (≈ 1.81 µM) | inhibitory effect on M. tuberculosis gyrase supercoiling [2]: none of the compounds showed an inhibitory effect
19 | CCOC(=O)c1c(C)[n+]([O-])c2ccc(C(=O)OC(C)C)cc2[n+]1[O-] [Compound T-065] | 0.5 (≈ 1.5 µM) | 0.7 (≈ 2.09 µM) | –
20 | Cc1c(C(=O)OC(C)(C)C)[n+]([O-])c2cc(C(=O)OC(C)C)ccc2[n+]1[O-] [Compound T-066] | > 100 | 68.6 (≈ 189 µM) | LORA percentage in parentheses after the MIC bound [1]: 77%
21 | CCOC(=O)Cc1c(C(=O)OCC)[n+]([O-])c2cc(C(=O)OC(C)C)ccc2[n+]1[O-] [Compound T-067] | 2.47 (≈ 6.08 µM) | 3.41 (≈ 8.39 µM) | –
22 | CC(=O)c1c(C(F)(F)F)[n+]([O-])c2ccc(C(=O)OC(C)C)cc2[n+]1[O-] [Compound T-070] | 0.24 (≈ 0.67 µM) | ≤ 0.15 | –

Row | Compound | MIC [1, 4] [mg/L] | MIC [3] [mg/L] | other results
23 | CC(C)OC(=O)c1ccc2c(c1)[n+]([O-])c(C(=O)c1ccccc1)c(C(F)(F)F)[n+]2[O-] [Compound T-071] | 0.64 (≈ 1.52 µM) | 1.19 (≈ 2.83 µM) | –
24 | CC(C)OC(=O)c1ccc2c(c1)[n+]([O-])c(C(=O)c1ccco1)c(C(F)(F)F)[n+]2[O-] [Compound T-073] | 0.6 (≈ 1.46 µM) | 0.7 (≈ 1.71 µM) | –
25 | CCCOC(=O)c1ccc2no[n+]([O-])c2c1 [Compound T-074] | 4.62 (≈ 20.8 µM) | 0.87 (≈ 3.92 µM) | –
26 | CC(=O)c1c(C)[n+]([O-])c2ccc(C(=O)OC(C)C)cc2[n+]1[O-] [Compound T-084] | 0.6 (≈ 1.97 µM) | 0.8 (≈ 2.63 µM) | –
27 | CCCOC(=O)c1ccc2c(c1)[n+]([O-])c(C(=O)OCC)c(C)[n+]2[O-] [Compound T-090] | – | 0.8 (≈ 2.39 µM) | –
28 | CCCOC(=O)c1ccc2c(c1)[n+]([O-])c(C(=O)C(C)(C)C)c(C)[n+]2[O-] [Compound T-091] | – | > 100 | MABA percentage in parentheses after the MIC bound [3]: 33%
29 | Cc1c(C(=O)Nc2ccccc2)[n+]([O-])c2cc(C(=O)OC(C)C)ccc2[n+]1[O-] [Compound T-097] | > 20 | > 20 | LORA percentage in parentheses after the MIC bound [1]: 33%; MABA percentage in parentheses after the MIC bound [3]: 6%
30 | Cc1c(C(=O)c2ccccc2)[n+]([O-])c2cc(C(=O)OC(C)C)ccc2[n+]1[O-] [Compound T-098] | 2.87 (≈ 7.83 µM) | 4.59 (≈ 12.5 µM) | –
31 | CC(C)OC(=O)c1ccc2c(c1)[n+]([O-])c(C(=O)C(C)(C)C)c(C(C)(C)C)[n+]2[O-] [Compound T-107] | – | 2.1 (≈ 5.41 µM) | –
32 | Cc1c(C(N)=O)[n+]([O-])c2cc(C(=O)OC(C)C)ccc2[n+]1[O-] [Compound T-108] | – | 22.5 (≈ 73.7 µM) | inhibitory effect on M. tuberculosis gyrase supercoiling [2]: none of the compounds showed an inhibitory effect
33 | CCCOC(=O)c1ccc2c(c1)[n+]([O-])c(C(=O)C(C)C)c(C(F)(F)F)[n+]2[O-] [Compound T-111] | – | 1.5 (≈ 3.88 µM) | –
34 | CCCOC(=O)c1ccc2c(c1)[n+]([O-])c(C(=O)OCC)c(C(=O)C(=O)OCC)[n+]2[O-] [Compound T-112] | – | 1.4 (≈ 3.33 µM) | –
35 | CCCOC(=O)c1ccc2c(c1)[n+]([O-])c(C(C)=O)c(C(F)(F)F)[n+]2[O-] [Compound T-113] | – | 3 (≈ 8.37 µM) | –
36 | CCCOC(=O)c1ccc2c(c1)[n+]([O-])c(C(=O)c1ccco1)c(C(F)(F)F)[n+]2[O-] [Compound T-114] | – | 2.9 (≈ 7.07 µM) | inhibitory effect on M. tuberculosis gyrase supercoiling [2]: none of the compounds showed an inhibitory effect
37 | CCCOC(=O)c1ccc2c(c1)[n+]([O-])c(C(=O)c1ccccc1)c(C(F)(F)F)[n+]2[O-] [Compound T-115] | – | 1.5 (≈ 3.57 µM) | –
38 | CCCOC(=O)c1ccc2c(c1)[n+]([O-])c(C(=O)OCC)c(C(F)(F)F)[n+]2[O-] [Compound T-124] | – | 3 (≈ 7.73 µM) | –
39 | CCCOC(=O)c1ccc2c(c1)[n+]([O-])c(C(=O)Nc1ccccc1)c(C)[n+]2[O-] [Compound T-125] | – | 12.3 (≈ 32.3 µM) | inhibitory effect on M. tuberculosis gyrase supercoiling [2]: none of the compounds showed an inhibitory effect
40 | CCCOC(=O)c1ccc2c(c1)[n+]([O-])c(C(C)=O)c(C)[n+]2[O-] [Compound T-126] | – | 3 (≈ 9.86 µM) | –
41 | CCCOC(=O)c1ccc2c(c1)[n+]([O-])c(C(N)=O)c(C)[n+]2[O-] [Compound T-130] | – | 2.9 (≈ 9.5 µM) | –
42 | CCCOC(=O)c1ccc2c(c1)[n+]([O-])c(C(=O)c1ccccc1)c(C)[n+]2[O-] [Compound T-132] | – | 2.3 (≈ 6.28 µM) | –
43 | NNC(=O)c1ccncc1 [INH, isoniazid, reference compound] | > 128 | 0.12 (≈ 0.875 µM) | –
44 | CO[C@H]1/C=C/O[C@@]2(C)Oc3c(C)c(O)c4c(O)c(c(/C=N/N5CCN(C)CC5)c(O)c4c3C2=O)NC(=O)/C(C)=C\C=C\[C@H](C)[C@H](O)[C@@H](C)[C@@H](O)[C@@H](C)[C@H](OC(C)=O)[C@@H]1C [RMP, rifampicin, reference compound] | 0.89 (≈ 1.08 µM) | 0.03 (≈ 0.0365 µM) | MIC (M. tb H37Rv): < 0.06 mg/L
